From ChEMBL document CHEMBL1201862, “PubChem BioAssay data set” (2004)
Activity calls are given as the source filed them.

Columns and labels:
Caspase-3 = target: T1, Caspase-3 (Homo sapiens, UniProt P42574); type: functional;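 also: Dose-response selectivity test against caspase-3 for candidate inhibitors of sentrin-specific proteases (SENPs)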
T1 sequence (P42574 whole entry): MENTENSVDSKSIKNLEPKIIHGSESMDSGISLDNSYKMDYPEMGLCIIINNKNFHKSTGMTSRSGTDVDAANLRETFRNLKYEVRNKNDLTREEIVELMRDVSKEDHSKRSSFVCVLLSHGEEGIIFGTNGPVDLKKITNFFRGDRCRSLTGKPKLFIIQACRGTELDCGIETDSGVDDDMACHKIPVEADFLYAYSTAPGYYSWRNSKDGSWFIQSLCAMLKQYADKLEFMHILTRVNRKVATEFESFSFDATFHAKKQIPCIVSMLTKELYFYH

[1] = target: T2, Sentrin-specific protease 7 (Homo sapiens, UniProt Q9BQF6); type: functional;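 also: Luminescence-based dose-response confirmation of ultra-high-throughput screening hits, measuring inhibition of SENP7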
T2 sequence (Q9BQF6 whole entry): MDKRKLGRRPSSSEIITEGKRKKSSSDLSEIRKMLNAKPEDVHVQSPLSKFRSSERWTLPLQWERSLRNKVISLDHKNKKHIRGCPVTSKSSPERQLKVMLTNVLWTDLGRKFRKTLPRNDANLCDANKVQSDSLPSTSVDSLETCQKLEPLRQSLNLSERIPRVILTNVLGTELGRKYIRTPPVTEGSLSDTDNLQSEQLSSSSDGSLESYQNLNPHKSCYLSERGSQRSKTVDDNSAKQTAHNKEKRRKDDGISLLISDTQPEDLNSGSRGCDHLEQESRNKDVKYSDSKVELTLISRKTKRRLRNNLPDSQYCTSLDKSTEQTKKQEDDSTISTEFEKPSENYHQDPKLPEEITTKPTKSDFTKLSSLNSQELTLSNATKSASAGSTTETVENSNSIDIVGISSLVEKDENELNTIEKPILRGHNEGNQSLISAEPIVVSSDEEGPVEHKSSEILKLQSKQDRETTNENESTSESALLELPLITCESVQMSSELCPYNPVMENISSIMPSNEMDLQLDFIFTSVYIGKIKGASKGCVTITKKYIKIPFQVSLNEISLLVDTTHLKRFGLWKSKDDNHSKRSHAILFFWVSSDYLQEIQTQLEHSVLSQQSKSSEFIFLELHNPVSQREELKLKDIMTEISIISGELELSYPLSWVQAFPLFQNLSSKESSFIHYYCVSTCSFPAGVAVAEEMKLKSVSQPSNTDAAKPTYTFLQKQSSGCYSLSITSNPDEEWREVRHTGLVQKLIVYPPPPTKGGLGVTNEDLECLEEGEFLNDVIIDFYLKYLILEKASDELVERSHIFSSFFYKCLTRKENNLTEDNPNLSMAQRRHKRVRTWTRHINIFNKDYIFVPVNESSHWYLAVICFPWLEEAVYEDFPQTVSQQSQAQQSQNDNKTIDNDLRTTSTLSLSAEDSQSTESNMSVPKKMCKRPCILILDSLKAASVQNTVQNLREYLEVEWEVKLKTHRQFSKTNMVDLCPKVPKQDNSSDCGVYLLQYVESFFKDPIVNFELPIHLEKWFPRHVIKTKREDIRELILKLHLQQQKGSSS

[2] = target: T3, Sentrin-specific protease 6 (Homo sapiens, UniProt Q9GZR1); type: functional;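 also: Luminescence-based dose-response confirmatory assay of SENP6 inhibition, following up an ultra-high-throughput screen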
T3 sequence (Q9GZR1 whole entry): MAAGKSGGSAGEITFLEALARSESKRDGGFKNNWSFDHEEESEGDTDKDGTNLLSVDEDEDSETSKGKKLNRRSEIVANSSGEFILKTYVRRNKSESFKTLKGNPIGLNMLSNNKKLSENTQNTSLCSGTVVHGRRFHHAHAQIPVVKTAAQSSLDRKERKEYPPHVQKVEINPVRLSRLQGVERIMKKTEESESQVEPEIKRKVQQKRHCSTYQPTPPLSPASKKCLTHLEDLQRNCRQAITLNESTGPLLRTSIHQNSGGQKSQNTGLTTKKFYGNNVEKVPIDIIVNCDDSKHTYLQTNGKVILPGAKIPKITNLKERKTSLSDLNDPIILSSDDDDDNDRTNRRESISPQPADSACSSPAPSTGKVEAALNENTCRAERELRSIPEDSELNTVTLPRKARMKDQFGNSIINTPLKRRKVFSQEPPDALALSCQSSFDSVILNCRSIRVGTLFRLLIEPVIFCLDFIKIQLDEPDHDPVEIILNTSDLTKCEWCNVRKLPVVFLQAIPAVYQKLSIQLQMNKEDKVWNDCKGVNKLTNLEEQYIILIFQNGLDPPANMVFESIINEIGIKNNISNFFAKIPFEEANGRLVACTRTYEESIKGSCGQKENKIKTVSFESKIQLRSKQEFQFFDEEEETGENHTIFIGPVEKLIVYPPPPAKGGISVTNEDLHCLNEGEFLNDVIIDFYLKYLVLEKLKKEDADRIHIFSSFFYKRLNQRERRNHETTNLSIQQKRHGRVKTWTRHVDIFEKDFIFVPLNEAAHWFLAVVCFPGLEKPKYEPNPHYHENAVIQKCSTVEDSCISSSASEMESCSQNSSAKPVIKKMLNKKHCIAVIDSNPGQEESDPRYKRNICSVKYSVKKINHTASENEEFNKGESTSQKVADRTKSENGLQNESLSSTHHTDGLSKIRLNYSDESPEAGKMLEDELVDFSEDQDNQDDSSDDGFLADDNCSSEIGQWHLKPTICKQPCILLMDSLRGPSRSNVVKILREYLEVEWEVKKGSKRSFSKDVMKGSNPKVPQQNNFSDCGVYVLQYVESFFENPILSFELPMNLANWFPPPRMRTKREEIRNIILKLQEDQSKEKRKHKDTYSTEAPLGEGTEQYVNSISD

[3] = target: T4, Sentrin-specific protease 8 (Homo sapiens, UniProt Q96LD8); type: functional;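 also: luminescence read-out of SENP8 inhibition, dose-response confirmation following an ultra-high-throughput screen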
T4 sequence (Q96LD8 whole entry): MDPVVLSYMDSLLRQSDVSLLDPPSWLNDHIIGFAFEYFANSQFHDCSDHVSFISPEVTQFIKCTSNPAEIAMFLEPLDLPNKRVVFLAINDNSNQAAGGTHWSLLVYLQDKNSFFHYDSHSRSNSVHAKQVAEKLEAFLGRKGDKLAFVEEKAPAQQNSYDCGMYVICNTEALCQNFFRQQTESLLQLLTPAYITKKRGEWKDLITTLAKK

[4] = target: T5, Endoribonuclease toxin MazF (Escherichia coli K-12, UniProt P0AE70); assay: MazF toxin RNase activators, dose response, biochemical, fluorescence, single-stranded RNA substrate, uHTS hits (AID 588481); type: functional
T5 sequence (P0AE70 whole entry): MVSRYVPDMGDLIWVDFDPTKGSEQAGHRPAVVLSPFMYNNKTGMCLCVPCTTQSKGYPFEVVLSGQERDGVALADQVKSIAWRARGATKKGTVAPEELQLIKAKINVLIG

[5] = target: T5, Endoribonuclease toxin MazF; assay: fluorescent RNA oligo signal without MazF, dose response, counter-screen for MazEF activator project, biochemical, fluorescence, single-stranded RNase substrate (AID 588502); type: functional
Cytochrome P450 3A4 = Cytochrome P450 3A4 (Homo sapiens, UniProt P08684);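 also: CYP3A4 tested as one member of a cytochrome P450 panel screen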
Cytochrome P450 2C9 = Cytochrome P450 2C9 (Homo sapiens, UniProt P11712)
[6] = microbe, parasite or virus in culture; type: functional; details: Mycobacterium tuberculosis
[7] = target: T6, Replicative DNA helicase DnaB (Mycobacterium tuberculosis, UniProt P9WMR3); assay: DnaB intein splicing inhibitors, dose response, biochemical, cell-free fluorescence (AID 449749); type: functional
T6 sequence (P9WMR3 whole entry): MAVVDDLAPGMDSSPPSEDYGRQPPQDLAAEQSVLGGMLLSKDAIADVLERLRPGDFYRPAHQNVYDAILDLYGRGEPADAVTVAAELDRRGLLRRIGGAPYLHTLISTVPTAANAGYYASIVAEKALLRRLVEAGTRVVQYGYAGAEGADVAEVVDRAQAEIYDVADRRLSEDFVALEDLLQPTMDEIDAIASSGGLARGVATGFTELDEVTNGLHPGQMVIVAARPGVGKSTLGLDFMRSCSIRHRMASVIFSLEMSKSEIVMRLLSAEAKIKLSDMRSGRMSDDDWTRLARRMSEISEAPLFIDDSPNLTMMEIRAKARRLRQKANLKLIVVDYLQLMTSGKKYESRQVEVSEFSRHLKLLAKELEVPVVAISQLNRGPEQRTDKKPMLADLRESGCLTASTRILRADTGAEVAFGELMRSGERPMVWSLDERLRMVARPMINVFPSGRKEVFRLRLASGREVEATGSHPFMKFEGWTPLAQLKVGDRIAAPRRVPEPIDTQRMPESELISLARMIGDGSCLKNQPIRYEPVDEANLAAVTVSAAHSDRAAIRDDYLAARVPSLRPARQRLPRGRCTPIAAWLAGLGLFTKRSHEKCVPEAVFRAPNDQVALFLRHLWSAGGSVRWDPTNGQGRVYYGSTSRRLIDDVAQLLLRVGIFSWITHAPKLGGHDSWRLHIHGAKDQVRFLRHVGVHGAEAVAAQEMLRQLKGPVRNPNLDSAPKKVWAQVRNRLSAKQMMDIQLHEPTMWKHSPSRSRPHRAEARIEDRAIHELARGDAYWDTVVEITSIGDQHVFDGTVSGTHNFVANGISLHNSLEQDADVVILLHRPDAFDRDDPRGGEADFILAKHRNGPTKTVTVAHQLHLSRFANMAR

Protein RecA = target: T7, Protein RecA (Mycobacterium tuberculosis, UniProt P9WHJ3); assay: Fluorescence Cell-Free Homogeneous Dose Retest to Identify Inhibitors of RecA-Intein Splicing Activity. [Related pubchem assays (depositor defined):AID2097, AID2223, AID489010, AID492950]; type: functional
T7 sequence (P9WHJ3 whole entry): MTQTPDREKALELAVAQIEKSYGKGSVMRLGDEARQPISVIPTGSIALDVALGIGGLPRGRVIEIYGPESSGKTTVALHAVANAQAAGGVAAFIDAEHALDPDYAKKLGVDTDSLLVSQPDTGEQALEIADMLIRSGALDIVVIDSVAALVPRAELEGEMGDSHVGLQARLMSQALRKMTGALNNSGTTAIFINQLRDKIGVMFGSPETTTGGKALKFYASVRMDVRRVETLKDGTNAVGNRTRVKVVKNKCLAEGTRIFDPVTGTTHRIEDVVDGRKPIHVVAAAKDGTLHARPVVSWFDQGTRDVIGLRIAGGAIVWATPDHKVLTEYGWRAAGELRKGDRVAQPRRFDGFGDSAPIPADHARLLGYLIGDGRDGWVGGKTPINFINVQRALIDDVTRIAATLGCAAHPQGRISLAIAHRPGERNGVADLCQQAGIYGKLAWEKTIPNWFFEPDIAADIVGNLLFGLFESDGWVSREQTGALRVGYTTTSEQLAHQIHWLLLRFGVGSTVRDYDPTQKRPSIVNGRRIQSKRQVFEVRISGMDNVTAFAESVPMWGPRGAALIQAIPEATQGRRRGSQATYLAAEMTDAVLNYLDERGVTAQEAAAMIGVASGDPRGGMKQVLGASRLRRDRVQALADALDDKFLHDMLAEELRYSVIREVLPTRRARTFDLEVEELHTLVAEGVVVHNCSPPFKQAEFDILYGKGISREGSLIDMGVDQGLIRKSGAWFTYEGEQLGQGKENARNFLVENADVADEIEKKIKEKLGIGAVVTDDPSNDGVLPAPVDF

Cytochrome P450 2D6 = Cytochrome P450 2D6 (Homo sapiens, UniProt P10635);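 also: CYP2D6 member of a cytochrome P450 panel assay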
Cytochrome P450 2D6, sequence (P10635 whole entry): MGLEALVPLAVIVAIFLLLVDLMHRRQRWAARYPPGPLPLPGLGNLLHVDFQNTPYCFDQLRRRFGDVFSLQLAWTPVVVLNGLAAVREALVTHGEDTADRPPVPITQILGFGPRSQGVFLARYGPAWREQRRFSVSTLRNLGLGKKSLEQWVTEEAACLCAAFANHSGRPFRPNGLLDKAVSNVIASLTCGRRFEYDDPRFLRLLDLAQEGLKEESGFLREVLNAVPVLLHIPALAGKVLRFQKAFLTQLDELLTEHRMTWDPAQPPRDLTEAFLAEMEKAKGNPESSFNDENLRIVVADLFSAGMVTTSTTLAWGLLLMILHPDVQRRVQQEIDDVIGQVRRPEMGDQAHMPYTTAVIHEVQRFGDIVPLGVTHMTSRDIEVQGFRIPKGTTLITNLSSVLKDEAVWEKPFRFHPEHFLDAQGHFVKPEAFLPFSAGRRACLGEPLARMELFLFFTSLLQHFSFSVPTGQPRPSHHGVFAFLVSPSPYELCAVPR

Cytochrome P450 2C9, sequence (P11712 whole entry): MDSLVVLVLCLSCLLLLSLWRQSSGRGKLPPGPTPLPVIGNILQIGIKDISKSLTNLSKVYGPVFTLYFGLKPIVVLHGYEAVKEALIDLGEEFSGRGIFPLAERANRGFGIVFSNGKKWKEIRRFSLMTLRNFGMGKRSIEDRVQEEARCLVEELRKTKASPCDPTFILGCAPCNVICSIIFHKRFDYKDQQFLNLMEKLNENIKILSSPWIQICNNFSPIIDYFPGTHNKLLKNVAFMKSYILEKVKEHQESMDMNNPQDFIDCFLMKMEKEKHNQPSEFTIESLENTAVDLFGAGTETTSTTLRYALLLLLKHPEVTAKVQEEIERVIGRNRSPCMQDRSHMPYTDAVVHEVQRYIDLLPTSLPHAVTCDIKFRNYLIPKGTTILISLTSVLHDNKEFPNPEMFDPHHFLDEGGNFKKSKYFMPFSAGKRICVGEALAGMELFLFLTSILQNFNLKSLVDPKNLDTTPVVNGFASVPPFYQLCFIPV
Cytochrome P450 3A4, sequence (P08684 whole entry): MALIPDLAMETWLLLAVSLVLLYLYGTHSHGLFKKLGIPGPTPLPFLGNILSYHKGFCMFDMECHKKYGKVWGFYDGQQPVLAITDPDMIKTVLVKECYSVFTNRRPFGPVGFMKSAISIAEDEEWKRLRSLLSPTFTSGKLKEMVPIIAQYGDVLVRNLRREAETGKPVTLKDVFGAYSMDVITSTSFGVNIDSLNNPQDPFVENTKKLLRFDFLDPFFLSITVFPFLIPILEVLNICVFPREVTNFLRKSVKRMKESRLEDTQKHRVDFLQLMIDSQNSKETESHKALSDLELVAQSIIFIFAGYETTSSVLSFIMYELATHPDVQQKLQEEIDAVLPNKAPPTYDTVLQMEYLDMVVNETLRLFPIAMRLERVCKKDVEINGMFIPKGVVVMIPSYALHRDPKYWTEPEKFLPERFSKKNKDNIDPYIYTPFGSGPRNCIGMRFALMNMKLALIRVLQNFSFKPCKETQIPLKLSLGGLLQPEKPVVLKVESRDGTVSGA

Structure (SMILES): Cc1cccc(-c2noc(C3CCCCC3)n2)c1
- IC50 (Caspase-3): 32 µM (active)
- IC50 [1]: 11.3 µM (active)
- IC50 [2]: 40.1 µM (active)
- IC50 [3]: > 100 µM (inactive)

Structure (SMILES): COC(=O)Cn1c2ccc(OC)cc2c2nc3ccccc3nc21
- EC50 [4]: > 99 µM (inactive)
- EC50 [5]: > 99 µM (inactive)

Structure (SMILES): O=C(Nc1cccc(F)c1)N1CC2(CCN(C(=O)c3cc(C(F)(F)F)cc(C(F)(F)F)c3)CC2)C1
- AC50 (Cytochrome P450 3A4): 39.8 µM (inconclusive)
- AC50 (Cytochrome P450 2C9): inconclusive

Structure (SMILES): Nc1c2c(nc3sc4c(c13)CCCCC4)CCCC2
- CC50 [6]: 18 µM (active)
- IC50 (Caspase-3): 18.4 µM (active)
- IC50 [1]: 10.3 µM (active)
- IC50 [2]: 33.7 µM (active)
- IC50 [3]: 32.8 µM (active)

Structure (SMILES): CCC(CC)C(=O)NCc1ccc2c(c1)cc(C)n2C
- AC50 [7]: > 380 µM (inactive)
- EC50 (Protein RecA): > 380 µM (inactive)
- AC50 (Cytochrome P450 2D6): 31.6 µM (inconclusive)
- AC50 (Cytochrome P450 2C9): inconclusive

Structure (SMILES): CCCNC(=O)Cn1c(=O)/c(=C/c2ccc(-c3cccc([N+](=O)[O-])c3)o2)s/c1=C\C(=O)C(C)(C)C
- EC50 [4]: > 99 µM (inactive)
- EC50 [5]: > 99 µM (inactive)

Structure (SMILES): CCCCN1CC(=O)N2[C@H]3c4cc(C)ccc4OC[C@@H]3[C@H](c3ccccc3)[C@]2(C)C1=O
- EC50 [4]: > 99 µM (inactive)
- EC50 [5]: 24 µM (inactive)

Structure (SMILES): Cc1ccc2c(Cl)c(C(=O)N/N=C/c3cccn3C)sc2c1
- EC50 [4]: > 99 µM (inactive)
- EC50 [5]: > 99 µM (inactive)
